In series [1] the target is E3 ubiquitin-protein ligase Mdm2 (Homo sapiens, UniProt Q00987).
A short description of series [2]: Lipophilicity, logP of the compound. In kind it is physicochemical. The conditions noted are these: octanol/water.
In series [3] the target is T1, Protein Mdm4 (Homo sapiens, UniProt O15151).
T1 sequence (O15151 whole entry): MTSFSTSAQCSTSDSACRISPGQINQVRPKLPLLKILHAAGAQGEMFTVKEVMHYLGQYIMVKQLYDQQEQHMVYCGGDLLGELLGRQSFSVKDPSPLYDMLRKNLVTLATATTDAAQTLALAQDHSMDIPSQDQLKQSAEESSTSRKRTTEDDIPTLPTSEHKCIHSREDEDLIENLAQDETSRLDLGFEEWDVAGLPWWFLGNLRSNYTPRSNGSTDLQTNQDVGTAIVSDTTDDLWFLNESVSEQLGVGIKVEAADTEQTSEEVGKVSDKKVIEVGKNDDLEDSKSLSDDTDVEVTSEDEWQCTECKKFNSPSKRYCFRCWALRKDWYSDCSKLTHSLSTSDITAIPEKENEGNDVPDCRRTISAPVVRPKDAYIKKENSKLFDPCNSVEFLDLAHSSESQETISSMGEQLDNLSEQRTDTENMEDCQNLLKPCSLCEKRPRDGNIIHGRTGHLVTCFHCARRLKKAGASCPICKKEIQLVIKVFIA

Chain of E3 ubiquitin-protein ligase Mdm2 (Q00987 whole entry): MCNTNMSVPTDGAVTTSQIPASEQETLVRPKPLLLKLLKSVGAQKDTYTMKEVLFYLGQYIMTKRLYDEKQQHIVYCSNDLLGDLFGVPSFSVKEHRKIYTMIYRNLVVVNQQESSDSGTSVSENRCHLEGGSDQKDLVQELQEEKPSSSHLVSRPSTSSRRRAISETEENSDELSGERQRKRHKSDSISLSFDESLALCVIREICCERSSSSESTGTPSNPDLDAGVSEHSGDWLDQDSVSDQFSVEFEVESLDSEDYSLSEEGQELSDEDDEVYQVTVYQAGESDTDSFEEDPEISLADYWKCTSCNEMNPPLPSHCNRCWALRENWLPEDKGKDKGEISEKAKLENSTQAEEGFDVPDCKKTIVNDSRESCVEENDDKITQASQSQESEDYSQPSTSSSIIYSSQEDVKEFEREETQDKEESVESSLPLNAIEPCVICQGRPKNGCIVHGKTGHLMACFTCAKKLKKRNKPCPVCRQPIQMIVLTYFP

The Ki is the dissociation constant of the complex between target and ligand, obtained from inhibition or displacement. Read a high Ki as lower affinity. For orientation: logP means a log measure of how a compound divides between an organic and an aqueous phase. For `CCOC(=O)c1[nH]c2cc(Cl)ccc2c1-c1c(-c2ccc(Cl)cc2)c2ccccc2n1Cc1ccc(Cl)cc1`, the results for the Ki in series [1] and in series [3] were more than 22 µM and more than 60 µM, respectively. In series [2], this compound returned a lipophilicity (logP) of 8.38. In turn, `O=C(O)c1[nH]c2cc(Cl)ccc2c1-c1c(-c2ccc(F)cc2)c2ccccc2n1Cc1ccc(Cl)cc1` came in with a logP in series [2] of 7.38. In turn, `O=C(NCCN1CCOCC1)c1[nH]c2cc(Cl)ccc2c1-c1c(-c2ccccc2)c2ccccc2n1Cc1ccc(Cl)cc1` registered a logP in series [2] of 6.4. The compound `CCOC(=O)c1[nH]c2cc(Cl)ccc2c1-c1c(-c2ccccc2)c2ccccc2n1Cc1ccc(Cl)cc1` displayed a logP in series [2] of 7.82.

The compound `Clc1ccc(Cn2c(-c3c[nH]c4cc(Cl)ccc34)c(-c3ccccc3)c3ccccc32)cc1` yielded a logP in series [2] of 7.61. With `CCOC(=O)c1[nH]c2cc(Cl)ccc2c1-c1c(-c2ccc(F)cc2)c2ccccc2n1Cc1ccc(Cl)cc1`, the logP in series [2] came out at 7.98. Compound `O=C(O)c1[nH]c2cc(Cl)ccc2c1-c1c(-c2ccccc2)c2ccccc2n1Cc1ccc(Cl)cc1` displayed a logP in series [2] of 7.22.

The values are drawn from ChEMBL document CHEMBL3734728, “2,30-Bis(10H-indole) heterocycles: New p53/MDM2/MDMX antagonists” (Bioorg Med Chem Lett, 2015).
